Laboratory results: patent US20260207513A1, “PHARMACEUTICAL COMPOSITION OF SIPONIMOD” (Synthon B.V., priority 2022, published 2026)
Read-outs that look alike come from different tables or passages of the source.

Key:
[1] = Water content w(H2O), Karl Fischer method; format: physicochemical
From the text: […] The water content can be determined according to the Karl Fischer method as described in Ph. Eur. section 2.5.32. The determination is done by coulometry, preferably Mettler Toledo DL39 Karl Fisher Coulometer, or an equivalent apparatus, including a titration cell without diaphragm. Alternatively, the volumetric Karl Fisher method can be used to determine the water content. […] The water content can be achieved by choosing appropriate ingredients, drying, wetting or combination thereof.

[2] = Compatibility study, closed container: sum of impurities by HPLC
Protocol: Afterwards, the two components were blended in Turbula® at 72 rpm for 10 minutes. The resulting blend was compacted in the EKO eccentric compression machine in order to obtain a slug. The slug was milled manually, resulting into a milled blend. The milled blend (440 mg) was accurately weighed and placed in glass, opaque vial. […] The milled blend was then analyzed for a sum of area percent levels of impurities (A^imp) by HPLC. The HPLC was performed on Acquity UPLC BEH C8, 150×2.1 mm, dp=1.7 μm column. The detection with UV light at wavelength of 259 nm was used. The column was eluted, using a gradient method, with aqueous ammonium acetate (10 mM, pH 5.5) and acetonitrile at column temperature of 50° C. for 30 min.

[3] = Excipients - dry 0.5% ≤ w(H2O) < 5%
[4] = Excipients - hydrated w(H2O) ≥ 5%
[5] = Excipients - substantially dry w(H2O) < 0.5%
[6] = siponimod adipic acid co-crystal:excipient 1:10 (w/w), excipients substantially dry w(H2O) < 0.5%, closed container, 1 month, 40° C., RH 75%

Compound	w (H2O) [1, 5]	A^imp (1 m), sum of area percent levels of impurities [2, 6]	other results
OC[C@@H](O)[C@@H](O)[C@H](O)[C@H](O)CO [Mannitol]	–	–	w (H2O) [1, 3]: 0.6%
OC[C@H]1O[C@@H](O[C@H]2[C@H](O)[C@@H](O)C(O)O[C@@H]2CO)[C@H](O)[C@@H](O)[C@H]1O (stereo partly shown) [Lactose]	–	–	w (H2O) [1, 4]: 5.0%
Magnesium stearate	0.2%	–	A^imp (1 m), sum of area percent levels of impurities [2]: 0.16%
CCc1cc(/C(C)=N/OCc2ccc(C3CCCCC3)c(C(F)(F)F)c2)ccc1CN1CC(C(=O)O)C1 [Siponimod adipic acid co-crystal]	–	–	w (H2O) ([1]; Active ingredients): 0.2%; A^imp (1 m), sum of area percent levels of impurities ([2]; Active ingredients, closed container, t = 1 month, 40° C., RH 75%): 0.09%
CCCCCCCCCCCCCCCCCCOC(=O)/C=C/C(=O)[O-].[Na+] [Sodium stearyl fumarate]	0.4%	0.08%	–
Isomalt	–	–	w (H2O) [1, 3]: 2.9%; w (H2O) [1, 4]: 5.0%

Second part, led by results:

w (H2O) [1, 5]	A^imp (1 m), sum of area percent levels of impurities [2, 6]	Compound	other results
0.2%	0.12%	CCCCCCCCCCCCCCCCCC(=O)OCC(O)CO (stereo not shown) [Glycerol monostearate]	–
0.1%	0.08%	CCCCCCCCCCCCCCCCCCCCCC(=O)OCC(CO)OC(=O)CCCCCCCCCCCCCCCCCCCCC (stereo not shown) [Glycerol dibehenate]	–
0.3%	0.05%	CCCCCCCCCCCCCCCCCCO [Stearyl alcohol]	–
